Test: HILIC, Waters ACQUITY UPLC BEH Amide, 100 × 2.1 mm, 1.7 µm; A: water + 0.125% formic acid + 10 mM ammonium formate; B: 5% water + 95% acetonitrile + 0.125% formic acid + 10 mM ammonium formate; gradient (min/%B) 0/100 2/100 7.7/70 9.5/40 10.25/30 12.75/100 17/100
Details: stereoisomer not certain

Row | LC retention time | SMILES
1 | 1 min | COc1ccc(-c2cc(=O)c3c(OC)c(OC)c(OC)c(OC)c3o2)cc1OC [Nobiletin]
2 | 6.99 min | CCCCC(N)C(=O)O (centres undefined) [Norleucine]
3 | 4.89 min | CCCC(N)C(=O)O (centres undefined) [Norvaline]
4 | 1.31 min | COc1ccc2c(c1OC)C(=O)OC2C1c2c(cc3c(c2OC)OCO3)CCN1C (centres undefined) [Noscapine]
5 | 7.6 min | CC(=O)OCC[C@H](N)C(=O)O [O-Acetyl-L-homoserine]
6 | 7.67 min | CC(=O)OCC(N)C(=O)O (centres undefined) [O-Acetylserine]
7 | 9.23 min | NCCOP(=O)(O)O [O-Phosphocolamine]
8 | 9.85 min | NC(COP(=O)(O)O)C(=O)O (centres undefined) [O-Phosphoserine]
9 | 8.06 min | NC(CCOC(=O)CCC(=O)O)C(=O)O (centres undefined) [O-Succinylhomoserine]
10 | 1.24 min | O=C(O)CCCCCCCCCCCCCCCCC(=O)O [Octadecanedioic acid]
11 | 6.98 min | CCCCCCCC=O [Octanal]
12 | 8.47 min | CCCCCCCCO [Octanol]
13 | 10.3 min | CC(NC(CCCN=C(N)N)C(=O)O)C(=O)O (centres undefined) [Octopine]
14 | 4.56 min | Cc1cc2c(s1)Nc1ccccc1N=C2N1CCN(C)CC1 [Olanzapine]
15 | 4.76 min | CCCc1nc(C(C)(C)O)c(C(=O)O)n1Cc1ccc(-c2ccccc2-c2nn[nH]n2)cc1 [Olmesartan]
16 | 4.41 min | CN(C)CCC=C1c2ccccc2COc2ccc(CC(=O)O)cc21 [Olopatadine]
17 | 1.35 min | COc1ccc2nc(S(=O)Cc3ncc(C)c(OC)c3C)[nH]c2c1 (centres undefined) [Omeprazole]

Row | LC retention time | SMILES
18 | 2.83 min | Cc1nccn1CC1CCc2c(c3ccccc3n2C)C1=O (centres undefined) [Ondansetron]
19 | 0.89 min | CCCCCCCCCCCC(CC1OC(=O)C1CCCCCC)OC(=O)C(CC(C)C)NC=O (centres undefined) [Orlistat]
20 | 4.19 min | COc1cc(C)c(Cc2cnc(N)nc2N)cc1OC [Ormetroprim]
21 | 1.08 min | Cc1ncc([N+](=O)[O-])n1CC(O)CCl (centres undefined) [Ornidazole]
22 | 9.6 min | NCCCC(N)C(=O)O (centres undefined) [Ornithine]
23 | 2.52 min | Nc1ccccc1S(=O)(=O)O [Orthanilic acid]
24 | 2.94 min | CCN(CC)CC1CCCCN1CC(=O)N1c2ccccc2C(=O)Nc2cccnc21 (centres undefined) [Otenzepad]
25 | 1.11 min | O=C(O)CCc1nc(-c2ccccc2)c(-c2ccccc2)o1 [Oxaprozin]
26 | 1.08 min | Clc1ccc(CON=C(Cn2ccnc2)c2ccc(Cl)cc2Cl)c(Cl)c1 [Oxiconazole]
27 | 2.01 min | CC[N+](C)(CC)CCOC(=O)C(O)(c1ccccc1)C1CCCCC1 (centres undefined) [Oxyphenonium]
28 | 2.99 min | O=C(O)C=Cc1ccc(Cn2ccnc2)cc1 [Ozagrel]
29 | 1.3 min | COc1ccc(C(=O)O)cc1 [P-Anisic acid]
30 | 3.23 min | CCCCCCCCCCCCCCCC(=O)OC(CC(=O)[O-])C[N+](C)(C)C (centres undefined) [Palmitoylcarnitine cation]
31 | 4.05 min | O=C1c2cccc3c2C(CCC3)CN1C1CN2CCC1CC2 (centres undefined) [Palonosetron]
32 | 1.9 min | CC(C)(CO)C(O)C(=O)NCCCO (centres undefined) [Panthenol]
33 | 1.21 min | COc1ccnc(CS(=O)c2nc3ccc(OC(F)F)cc3[nH]2)c1OC (centres undefined) [Pantoprazole]
34 | 3.5 min | CC(C)(CO)C(O)C(=O)NCCC(=O)O (centres undefined) [Pantothenic acid]

Row | SMILES | LC retention time
35 | c1cncc(C2CCCN2)c1 (centres undefined) [Nornicotine] | 5.98 min
36 | O=C1Nc2ccc(Cl)cc2C(c2ccccc2)=NC1O (centres undefined) [Oxazepam] | 1.37 min
37 | COc1ccc2c3c1OC1C(=O)CCC4(O)C(C2)N(C)CCC314 (centres undefined) [Oxycodone] | 4.58 min
38 | CN1CCC23c4c5ccc(O)c4OC2C(=O)CCC3(O)C1C5 (centres undefined) [Oxymorphone] | 5.5 min
39 | COc1ccc(Cc2nccc3cc(OC)c(OC)cc23)cc1OC [Papaverine] | 1.54 min

— the RepoRT retention time repository
